# According to PubChem BioAssay AID1259407 (Chemical Carcinogenesis Research Information System (CCRIS), 2018):
# Calls of active or inactive are those of the source. The rule behind the calls is not given here.
# System: CCRIS mutagenicity, Ames/micronucleus/aberration tests
# Test: CCRIS mutagenicity studies
structure (smiles),measurement,setting,value
Cn1c(-c2ccccc2)c(N=Nc2scc[n+]2C)c2ccccc21,mutagenic call,"Test System: AMES SALMONELLA TYPHIMURIUM, Strain/Indicator: TA1537, Metabolic Activation: HAMSTER, LIVER, S-9, AROCLOR 1254, Method: STANDARD PLATE",active; positive
same,mutagenic call,"Test System: AMES SALMONELLA TYPHIMURIUM, Strain/Indicator: TA1537, Metabolic Activation: NONE, Method: STANDARD PLATE",active; positive
same,mutagenic call,"Test System: AMES SALMONELLA TYPHIMURIUM, Strain/Indicator: TA1537, Metabolic Activation: RAT, LIVER, S-9, AROCLOR 1254, Method: STANDARD PLATE",active; positive
same,mutagenic call,"Test System: Mouse lymphoma, Strain/Indicator: L5178Y (tk+/tk-), Metabolic Activation: None, Method: Suspension/plate",active; inconclusive (previous evaluation positive)
same,mutagenic call,"Test System: Mouse lymphoma, Strain/Indicator: L5178Y (tk+/tk-), Metabolic Activation: Rat, Liver, S-9, Aroclor 1254, Method: Suspension/plate",active; inconclusive (previous evaluation positive)
N#Cc1ccc(CCl)cc1,mutagenic call,"Test System: AMES SALMONELLA TYPHIMURIUM, Strain/Indicator: TA100, Metabolic Activation: NONE, Method: STANDARD PLATE",inactive; negative
[N-]=[N+]=CC(=O)NCC(N)=O,mutagenic call,"Test System: AMES SALMONELLA TYPHIMURIUM, Strain/Indicator: TA1535, Metabolic Activation: NONE, Method: STANDARD PLATE",active; positive
same,mutagenic call,"Test System: UDS RODENT CELLS, Strain/Indicator: THY INCORP (NON-S-PHASE), Metabolic Activation: NONE, Method: AUTORADIOGRAPHY",active; positive
Nc1c(O)cccc1C(=O)O,mutagenic call,"Test System: AMES SALMONELLA TYPHIMURIUM, Strain/Indicator: TA100, Metabolic Activation: NONE, Method: PREINCUBATION",inactive; negative
